Source: publication PMC11033320, “Activation of p53 signaling and regression of breast and prostate carcinoma cells by spirooxindole-benzimidazole small molecules” (Frontiers in Pharmacology, 2024)

Tests used:
[1] = MTT cytotoxicity to normal human lung fibroblast Wi-38 cell line; type: cell-based; settings: Wi-38 normal lung fibroblast cells, mean ± SEM, read-out: percentage of Wi-38 viability
Description: Normal human lung fibroblast Wi-38 cell line was used to detect cytotoxicity of the studied compounds (Table S8). Wi-38 cell line was cultured in DMEM medium-contained 10% fetal bovine serum (FBS), seeded as 5x10^3 cells per well in 96-well cell culture plate and incubated at 37 °C in 5% CO2 incubator. After 24 h for cell attachment, serial concentrations of the synthetic compounds were incubated with Wi-38 cells for 72 h. Cell viability was assayed by MTT method (Mosmann, 1983). Twenty microliters of 5 mg/ml MTT (Sigma, USA) was added to each well and the plate was incubated at 37 °C for 3 h. Then MTT solution was removed, 100 µl DMSO was added and the absorbance of each well was measured with a microplate reader (BMG LabTech, Germany) at 570 nm.

[2] = system: K-562; assay: NCI anticancer screening, Leukemia K-562; type: cell-based; settings: Homo sapiens, K562; K-562, 10 μM; read-out: % Growth Inhibition (GI %)
Description: (§1) The compound has been processed according to standard method NCI-60 Human Tumor Cell Lines Screen for organic compound at development therapeutic program (DTP). Requests for access to this national resource can be submitted online at: […]

[3] = system: MOLT-4; assay: NCI anticancer screening, Leukemia MOLT-4; type: cell-based; settings: Homo sapiens; MOLT-4, 10 μM; read-out: % Growth Inhibition (GI %)
Description: as §1

[4] = system: RPMI-8226; assay: NCI anticancer screening, Leukemia RPMI-8226; type: cell-based; settings: Homo sapiens; RPMI-8226, 10 μM; read-out: % Growth Inhibition (GI %)
Description: as §1

[5] = system: SR; assay: NCI anticancer screening, Leukemia SR; type: cell-based; settings: Homo sapiens, read-out: % Growth Inhibition (GI %)
Description: as §1

[6] = system: A549/ATCC; assay: NCI anticancer screening, Non-Small Cell Lung Cancer A549/ATCC; type: cell-based; settings: Homo sapiens, read-out: % Growth Inhibition (GI %)
Description: as §1

[7] = system: NCI-H23; assay: NCI anticancer screening, Non-Small Cell Lung Cancer NCI-H23; type: cell-based; settings: Homo sapiens; NCI-H23, 10 μM; read-out: % Growth Inhibition (GI %)
Description: as §1

[8] = system: NCI-H322M; assay: NCI anticancer screening, Non-Small Cell Lung Cancer NCI-H322M; type: cell-based; settings: Homo sapiens, read-out: % Growth Inhibition (GI %)
Description: as §1

[9] = system: NCI-H460; assay: NCI anticancer screening, Non-Small Cell Lung Cancer NCI-H460; type: cell-based; settings: Homo sapiens; NCI-H460, 10 μM; read-out: % Growth Inhibition (GI %)
Description: as §1

[10] = system: NCI-H522; assay: NCI anticancer screening, Non-Small Cell Lung Cancer NCI-H522; type: cell-based; settings: Homo sapiens; NCI-H522, 10 μM; read-out: % Growth Inhibition (GI %)
Description: as §1

[11] = system: HCC-2998; assay: NCI anticancer screening, Colon Cancer HCC-2998; type: cell-based; settings: Homo sapiens; HCC-2998, 10 μM; read-out: % Growth Inhibition (GI %)
Description: as §1

[12] = system: HCT-15; assay: NCI anticancer screening, Colon Cancer HCT-15; type: cell-based; settings: Homo sapiens; HCT-15, 10 μM; read-out: % Growth Inhibition (GI %)
Description: as §1

[13] = system: HT29; assay: NCI anticancer screening, Colon Cancer HT29; type: cell-based; settings: Homo sapiens, HT-29; HT29, 10 μM; read-out: % Growth Inhibition (GI %)
Description: as §1

[14] = system: SF-539; assay: NCI anticancer screening, CNS Cancer SF-539; type: cell-based; settings: Homo sapiens; SF-539, 10 μM; read-out: % Growth Inhibition (GI %)
Description: as §1

[15] = system: LOX IMVI; assay: NCI anticancer screening, Melanoma LOX IMVI; type: cell-based; settings: Homo sapiens, read-out: % Growth Inhibition (GI %)
Description: as §1

[16] = system: MALME-3M; assay: NCI anticancer screening, Melanoma MALME-3M; type: cell-based; settings: Homo sapiens, read-out: % Growth Inhibition (GI %)
Description: as §1

[17] = system: M14; assay: NCI anticancer screening, Melanoma M14; type: cell-based; settings: Homo sapiens; M14, 10 μM; read-out: % Growth Inhibition (GI %)
Description: as §1

[18] = system: SK-MEL-2; assay: NCI anticancer screening, Melanoma SK-MEL-2; type: cell-based; settings: Homo sapiens; SK-MEL-2, 10 μM; read-out: % Growth Inhibition (GI %)
Description: as §1

[19] = system: SK-MEL-28; assay: NCI anticancer screening, Melanoma SK-MEL-28; type: cell-based; settings: Homo sapiens; SK-MEL-28, 10 μM; read-out: % Growth Inhibition (GI %)
Description: as §1

[20] = system: UACC-257; assay: NCI anticancer screening, Melanoma UACC-257; type: cell-based; settings: Homo sapiens; UACC-257, 10 μM; read-out: % Growth Inhibition (GI %)
Description: as §1

[21] = system: UACC-62; assay: NCI anticancer screening, Melanoma UACC-62; type: cell-based; settings: Homo sapiens; UACC-62, 10 μM; read-out: % Growth Inhibition (GI %)
Description: as §1

[22] = system: IGROV1; assay: NCI anticancer screening, Ovarian Cancer IGROV1; type: cell-based; settings: Homo sapiens, IGROV-1; IGROV1, 10 μM; read-out: % Growth Inhibition (GI %)
Description: as §1

[23] = system: OVCAR-3; assay: NCI anticancer screening, Ovarian Cancer OVCAR-3; type: cell-based; settings: Homo sapiens; OVCAR-3, 10 μM; read-out: % Growth Inhibition (GI %)
Description: as §1

[24] = system: OVCAR-4; assay: NCI anticancer screening, Ovarian Cancer OVCAR-4; type: cell-based; settings: Homo sapiens; OVCAR-4, 10 μM; read-out: % Growth Inhibition (GI %)
Description: as §1

[25] = system: OVCAR-5; assay: NCI anticancer screening, Ovarian Cancer OVCAR-5; type: cell-based; settings: Homo sapiens; OVCAR-5, 10 μM; read-out: % Growth Inhibition (GI %)
Description: as §1

[26] = system: ACHN; assay: NCI anticancer screening, Renal Cancer ACHN; type: cell-based; settings: Homo sapiens, read-out: % Growth Inhibition (GI %)
Description: as §1

[27] = system: CAKI-1; assay: NCI anticancer screening, Renal Cancer CAKI-1; type: cell-based; settings: Homo sapiens; CAKI-1, 10 μM; read-out: % Growth Inhibition (GI %)
Description: as §1

[28] = system: UO-31; assay: NCI anticancer screening, Renal Cancer UO-31; type: cell-based; settings: Homo sapiens; UO-31, 10 μM; read-out: % Growth Inhibition (GI %)
Description: as §1

[29] = system: MCF7; assay: NCI anticancer screening, Breast Cancer MCF7; type: cell-based; settings: Homo sapiens; MCF7, 10 μM; read-out: % Growth Inhibition (GI %)
Description: as §1

[30] = system: HS 578T; assay: NCI anticancer screening, Breast Cancer HS 578T; type: cell-based; settings: Homo sapiens, read-out: % Growth Inhibition (GI %)
Description: as §1

[31] = system: BT-549; assay: NCI anticancer screening, Breast Cancer BT-549; type: cell-based; settings: Homo sapiens; BT-549, 10 μM; read-out: % Growth Inhibition (GI %)
Description: as §1

[32] = system: T-47D; assay: NCI anticancer screening, Breast Cancer T-47D; type: cell-based; settings: Homo sapiens, T47D, read-out: % Growth Inhibition (GI %)
Description: as §1

[33] = system: MDA-MB-468; assay: NCI anticancer screening, Breast Cancer MDA-MB-468; type: cell-based; settings: Homo sapiens, read-out: % Growth Inhibition (GI %)
Description: as §1

SMILES: O=C(c1nc2ccccc2[nH]1)[C@H]1[C@H](c2ccc(C(F)(F)F)cc2)C2CSCN2[C@]12C(=O)Nc1ccccc12 (stereo partly drawn) [Compound 6c, (3S,6′R)-6'-(1H-Benzo [d]imidazole-2-carbonyl)-7'-(4-(trifluoromethyl)phenyl)-3′,6′,7′,7a′-tetrahydro-1′H-spiro [indoline-3.5′-pyrrolo [1,2-c]thiazol]-2-one]
- viability at 72 h, 5 µM [1]: 59.9 ± 2.84%
- inhibition at 10 µM [2]: 83.1%
- inhibition at 10 µM [3]: 82.7%
- inhibition at 10 µM [4]: 72%
- inhibition at 10 µM [5]: 85.6%
- inhibition at 10 µM [6]: 97.1%
- inhibition at 10 µM [7]: 82.3%
- inhibition at 10 µM [8]: 91.1%
- inhibition at 10 µM [9]: 66.8%
- inhibition at 10 µM [10]: 87.7%
- inhibition at 10 µM [11]: 99.6%
- inhibition at 10 µM [12]: 88.9%
- inhibition at 10 µM [13]: 74.7%
- inhibition at 10 µM [14]: 91.6%
- inhibition at 10 µM [15]: 88.7%
- inhibition at 10 µM [16]: 94.9%
- inhibition at 10 µM [17]: 83.3%
- inhibition at 10 µM [18]: 108%
- inhibition at 10 µM [19]: 97.7%
- inhibition at 10 µM [20]: 98.5%
- inhibition at 10 µM [21]: 77.5%
- inhibition at 10 µM [22]: 67.8%
- inhibition at 10 µM [23]: 87.7%
- inhibition at 10 µM [24]: 80.9%
- inhibition at 10 µM [25]: 96.1%
- inhibition at 10 µM [26]: 89.6%
- inhibition at 10 µM [27]: 78.6%
- inhibition at 10 µM [28]: 55.4%
- inhibition at 10 µM [29]: 77.7%
- inhibition at 10 µM [30]: 83.9%
- inhibition at 10 µM [31]: 107%
- inhibition at 10 µM [32]: 69.7%
- inhibition at 10 µM [33]: 91.6%
- melting point: 185 to 187 °C

SMILES: O=C(c1nc2ccccc2[nH]1)[C@H]1[C@H](c2ccc(Cl)cc2Cl)C2CSCN2[C@]12C(=O)Nc1ccccc12 (stereo partly drawn) [Compound 6g, (3S,6′R)-6'-(1H-Benzo [d]imidazole-2-carbonyl)-7'-(2,4-dichlorophenyl)-3′,6′,7′,7a′-tetrahydro-1′H-spiro [indoline-3.5′-pyrrolo [1,2-c]thiazol]-2-one]
- viability at 72 h, 5 µM [1]: 40 ± 1.1%
- inhibition at 10 µM [2]: 65.6%
- inhibition at 10 µM [3]: 43%
- inhibition at 10 µM [4]: 42.5%
- inhibition at 10 µM [5]: 45.8%
- inhibition at 10 µM [6]: 62%
- inhibition at 10 µM [7]: 85.4%
- inhibition at 10 µM [8]: 79.5%
- inhibition at 10 µM [9]: 55.5%
- inhibition at 10 µM [10]: 71.7%
- inhibition at 10 µM [11]: 70.3%
- inhibition at 10 µM [12]: 56%
- inhibition at 10 µM [13]: 61.9%
- inhibition at 10 µM [14]: 76.4%
- inhibition at 10 µM [15]: 67.2%
- inhibition at 10 µM [16]: 86.2%
- inhibition at 10 µM [17]: 66.8%
- inhibition at 10 µM [18]: 84.4%
- inhibition at 10 µM [19]: 78.3%
- inhibition at 10 µM [20]: 74.4%
- inhibition at 10 µM [21]: 57%
- inhibition at 10 µM [22]: 54.8%
- inhibition at 10 µM [23]: 69.7%
- inhibition at 10 µM [24]: 57.6%
- inhibition at 10 µM [25]: 86.1%
- inhibition at 10 µM [26]: 63.7%
- inhibition at 10 µM [27]: 36.9%
- inhibition at 10 µM [28]: 39.7%
- inhibition at 10 µM [29]: 51%
- inhibition at 10 µM [30]: 65.1%
- inhibition at 10 µM [31]: 92.3%
- inhibition at 10 µM [32]: 54.4%
- inhibition at 10 µM [33]: 69.2%
- melting point: 235 to 237 °C

SMILES: O=C(c1nc2ccccc2[nH]1)[C@H]1[C@H](c2ccc(Br)cc2)C2CSCN2[C@]12C(=O)Nc1ccccc12 (stereo partly drawn) [Compound 6l, (3S,6′R)-6'-(1H-Benzo [d]imidazole-2-carbonyl)-7'-(4-bromophenyl)-3′,6′,7′,7a′-tetrahydro-1′H-spiro [indoline-3.5′-pyrrolo [1,2-c]thiazol]-2-one]
- viability at 72 h, 5 µM [1]: 37.4 ± 2.02%
- inhibition at 10 µM [2]: 74.5%
- inhibition at 10 µM [3]: 56.3%
- inhibition at 10 µM [4]: 61.3%
- inhibition at 10 µM [5]: 54.1%
- inhibition at 10 µM [6]: 73%
- inhibition at 10 µM [7]: 75%
- inhibition at 10 µM [8]: 89.9%
- inhibition at 10 µM [9]: 66.2%
- inhibition at 10 µM [10]: 91.2%
- inhibition at 10 µM [11]: 79.4%
- inhibition at 10 µM [12]: 67%
- inhibition at 10 µM [13]: 80.2%
- inhibition at 10 µM [14]: 82.4%
- inhibition at 10 µM [15]: 73.2%
- inhibition at 10 µM [16]: 78.5%
- inhibition at 10 µM [17]: 68.6%
- inhibition at 10 µM [18]: 107%
- inhibition at 10 µM [19]: 84.8%
- inhibition at 10 µM [20]: 77.9%
- inhibition at 10 µM [21]: 70.5%
- inhibition at 10 µM [22]: 63.6%
- inhibition at 10 µM [23]: 79.8%
- inhibition at 10 µM [24]: 70.8%
- inhibition at 10 µM [25]: 95.9%
- inhibition at 10 µM [26]: 74.6%
- inhibition at 10 µM [27]: 60.3%
- inhibition at 10 µM [28]: 48.6%
- inhibition at 10 µM [29]: 60.6%
- inhibition at 10 µM [30]: 67.6%
- inhibition at 10 µM [31]: 90.2%
- inhibition at 10 µM [32]: 54.7%
- inhibition at 10 µM [33]: 87.2%
- melting point: 172 to 174 °C
